This is an account of results in patent US20220362227A1, “COMPOSITION OF PHYTONUTRIENTS FOR DIABETES MANAGEMENT” (ROSEMAN UNIVERSITY OF HEALTH SCIENCES, priority 2021, published 2022).

In series [1] the test system is primary human preadipocytes. The series can be described thus: Adipogenesis assay (adipogenic biomarkers, Oil Red O staining). It counts as cell-based. Conditions: for EC50: read-out: EC50 (anti-adipogenic phytonutrients). Here is the method: Adipogenesis Assays. Primary human preadipocytes were grown to confluence in growth media. At 2 days post-confluence, growth media were aspirated off the culture dishes and complete differentiation media were added. Complete differentiation media comprise […] with 18.5 mM glucose, HEPES (15 mM), NaHCO3 (25 mM), 100 units/ml penicillin, 100 μg/ml streptomycin, d-biotin (33 μM), pantothenate (17 μM), dexamethasone (100 nM), insulin (100 nM), rosiglitazone (1 μM), IBMX (0.5 mM), triiodothyronine (T3, 2 nM), and transferrin (10 μg/ml). On day three post-differentiation, complete differentiation media were replenished. On day seventh post-differentiation, complete differentiation media were replaced with maintenance media. Maintenance media comprise […], 100 units/ml penicillin, 100 μg/ml streptomycin, HEPES (15 mM), NaHCO3 (25 mM), d-biotin, pantothenate, insulin (10 nM), and dexamethasone (10 nM). Maintenance media were replenished on days tenth post-differentiation. Complete differentiation of preadipocytes into adipocytes were achieved on day fourteenth post-differentiation. To screen for anti-adipogenic phytonutrients, individual phytonutrients were mixed in complete differentiation media from day 0 to day 6th post-differentiation. Phytonutrients were removed together with complete differentiation media on day 7th post-differentiation following the replacement with maintenance media. Anti-adipogenic phytonutrients were identified based on their ability to: (1) suppress the expression of adipogenic biomarkers using proteomic assays of total cell extracts collected on day 6th post-differentiation, and (2) suppress intracellular lipid droplet accumulation using Oil Red O staining assays on day 14th post-differentiation.

Series [2] deals with primary human preadipocytes. The series can be described thus: Glucose uptake assay (2-NBDG, flow cytometry). It counts as cell-based. The conditions noted are these: together with 100 nM insulin, compared to insulin alone, 30 minutes. Here is the method: The glucose uptake assay used 2-NBDG, a fluorescently-labeled deoxyglucose analog, as a probe for the detection of glucose taken up by human primary preadipocytes. Flow cytometry was used to detect 2-NBDG uptake in single preadipocytes.
Glucose Uptake Assays. Primary human preadipocytes grown to 70% confluence in growth media, washed with phosphate buffered saline, and replaced with glucose-free DMEM media. Following 2 hours of incubation in glucose-free DMEM media, preadipocytes were treated with 100 μg/ml of 2-NDBG fluorescent glucose analog and insulin (100 nM) or phytonutrients (EC50) for 30 minutes. Preadipocytes were collected and analyzed using the Acuri C6 flow cytometer (BD Biosciences, San Jose, Calif.) and the 485 nm excitation and 535 nm emission filters.

Series [3] relates to Akt2. The series can be described thus: Screening for insulin-sensitizing phytonutrients: cIEF immunoassays of Akt2 phosphorylation. It counts as cell-based, human. The conditions noted are these: for increase of insulin-stimulated pAkt2 (Ser473) phosphorylation: together with 100 nM insulin, compared to insulin alone, cIEF; for Akt2 phosphorylation on cIEF electropherogram: treatment alone, 30 minutes, versus untreated control; for EC50: half-maximal effective concentration, primary human preadipocytes. The text has this:
(§1) Mapping Akt Isoforms Using Capillary Isoelectric Focusing (cIEF) Immunoassays. cIEF immunoassays separate proteins in total cell extracts (TCEs) by their isoelectric points (pIs) in nano-capillaries. The positions of the proteins are stabilized via UV-irradiated crosslinking of proteins to the sidewalls of the capillaries. A primary antibody that recognizes a specific protein of interest is introduced to individual capillaries. Then a secondary antibody linked to horseradish peroxidase is introduced. Following the introduction of the chemiluminescent substrates, the distribution of the isoforms of a protein is detected and presented graphically as electropherograms of intensity versus isoelectric points. Phosphorylation and acetylation of a protein generally leads to shifts toward lower pI values. In contrast, glycosylation of a protein generally leads to a shift toward higher pI values.
(§2) Human Primary Preadipocytes. Primary human preadipocytes were isolated from omental adipose tissues overweight and diabetic donors who were undergoing elective surgery using a previously published protocol. Primary human preadipocytes were maintained in growth media comprising Minimum Essential Medium a supplemented with 10% fetal bovine serum, 100 units/ml penicillin, and 100 μg/ml streptomycin.
(§3) Screening for Insulin-Sensitizing Phytonutrients. Primary human preadipocytes were treated for 30 minutes with 100 nM insulin (Humulin R, Eli Lilly, Indianapolis, Ind.), individual phytonutrients (Table 1 & Table 2), or combinations of insulin and phytonutrients. Total cell extracts (TCE) were collected and subjected to nanofluidic proteomic analysis including capillary isoelectric focusing (cIEF) immunoassays and capillary Western (CW) immunoassays.
(§4) Preparation of Total Cell Extracts. Approximately one million cells were incubated on ice for 10 minutes with 60 μl of lysis buffer (cat. no. 040-764, ProteinSimple, Santa Clara, Calif., USA), sonicated 4 times for 5 seconds each, mixed by rotation for 2 hours at 4° C., and centrifuged at 12,000 rpm in an Eppendorf 5430R microfuge for 20 minutes at 4° C. The supernatant was collected as the cell lysate. The total protein concentration in the cell lysate was determined with a Bradford protein assay and adjusted to a final concentration of 0.3 μg/μl with separation gradients (cat. no. Premix G2, pH 5-8, ProteinSimple, Santa Clara, Calif.) for charge-based cIEF immunoassays or to 0.4 μg/μl with denaturing buffers (cat. no. PS-ST01EZ or PS-ST03EZ, ProteinSimple) for size-based Western immunoassays.
(§5) Capillary Isoelectric Focusing Immunoassays. Cell lysates in separation gradients were loaded into 384-well assay plates (cat. no. 040-663, ProteinSimple) preloaded with primary and secondary antibodies and chemiluminescent substrates. Charge-based protein separation and detection in individual capillaries were performed using the default protocols of the NanoPro 1000 system (ProteinSimple). Hsp70 was used as the loading control. All cIEF immunoassays were performed in triplicate for each protein, and duplicate experiments were performed for each treatment condition, producing six repeated measurements per protein.

The subject of series [4] is Akt. Briefly: Capillary Western and cIEF immunoassays of pAkt (Thr308), pAkt (Thr450), pAkt (Ser473). It counts as cell-based, human. Conditions: for increase of pAkt (Ser473) phosphorylation / increase of pAkt (Thr308) phosphorylation / increase of pAkt (Thr450) phosphorylation: 30 minutes treatment, versus untreated control, capillary Western densitometry. Here is the method:
as §2, §3, §4, §5
Capillary Western Immunoassays. Cell lysates in denaturing buffers were denatured at 95° C. for 5 minutes, and then transferred to assay plates (cat. no. SM-W004 or SM-W008, ProteinSimple) preloaded with blocking reagents, wash buffer, primary and secondary antibodies, and chemiluminescent substrates. Sized-based protein separation and detection in capillaries were performed using the default protocols of the Jess system (ProteinSimple). β-Actin was used as loading controls. All capillary Western immunoassays were performed in triplicate for each protein, and duplicate experiments were performed for each treatment condition, producing six repeated measurements per protein.

Series [5] relates to Akt3. The series can be described thus: cIEF immunoassays of Akt3. It counts as cell-based, human. Conditions: for Akt3 cIEF electropherogram: treatment alone, 30 minutes, versus untreated.
Excerpt: as §1, §3
as §4, with “The supernatant was collected as the cell lysate.” left out, “immunoassays. […]” for “immunoassays.”

Series [6] concerns Akt1. The series can be described thus: cIEF immunoassays of Akt1. It counts as cell-based, human. Conditions: for Akt1 cIEF electropherogram: treatment alone, 30 minutes, versus untreated.
Excerpt: as §1, §3
as §4, with “The supernatant was collected as the cell lysate.” left out, “immunoassays. […]” for “immunoassays.”

Setting [7] is: half-maximal effective concentration, primary human preadipocytes.
The mark [8] stands for this setting: together with insulin, compared to insulin alone.

Take `COc1ccc2cc3[n+](cc2c1OC)CCc1cc2c(cc1-3)OCO2` [Berberine]: the inhibition of adipogenesis result in series [1] (differentiating primary human preadipocytes) is “strong inhibitor of adipogenesis”. The EC50 in series [1] (setting [7]) was determined as 10 µM. The “increase of insulin-stimulated glucose uptake by preadipocytes” value (“increase … by preadipocytes” below) in series [2] is listed as “no effect”. Also, in series [3], the “increase of insulin-stimulated pAkt2 (Ser473) phosphorylation” value is “no effect” and the “Akt2 phosphorylation on cIEF electropherogram” value (“Akt2 phosphorylation” for short) is given as “no effect”.
Take `O=CC=Cc1ccccc1` [Cinnamaldehyde]: in series [4], the “increase of pAkt (Ser473) phosphorylation” value is “no effect”, the “increase of pAkt (Thr308) phosphorylation” value is on record as “no effect” and the “increase of pAkt (Thr450) phosphorylation” value is on record as 1.6 folds. The “increase of insulin-stimulated pAkt (Ser473) phosphorylation” value in series [4] (together with 100 nM insulin, compared to insulin alone, cIEF and CW immunoassays) is given as about 4 folds. The “increase … by preadipocytes” value in series [2] is reported as “approximately 1.6 folds”. In series [3], the EC50 turned out to be 40 µM and the “Akt2 phosphorylation” value was “new peak at pI 5.41”. Further, in series [5] (setting [8]), the “phosphorylation of Akt3 on cIEF electropherogram” value was “no observable effect”. Moreover, the “Akt3 cIEF electropherogram” value in series [5] was “no observable effect”. The “phosphorylation of Akt1 on cIEF electropherogram” value in series [6] (setting [8]) is reported as “no observable effect”. For the same compound, in series [6], the “Akt1 cIEF electropherogram” value is given as “no observable effect”.
Regarding `COc1cc(/C=C/C(=O)CC(=O)/C=C/c2ccc(O)c(OC)c2)ccc1O` [Curcumin], in series [2], the “increase … by preadipocytes” value is about 1.7 folds. In series [3], the EC50 turned out to be 20 µM, the “increase of insulin-stimulated pAkt2 (Ser473) phosphorylation” value is listed as “approximately 4 folds” and the “Akt2 phosphorylation” value is on record as “new peak at pI 5.41”.
With `O=C(O[C@@H]1Cc2c(O)cc(O)cc2O[C@@H]1c1cc(O)c(O)c(O)c1)c1cc(O)c(O)c(O)c1` [Epigallocatechin Gallate], in series [1] (setting [7]), the EC50 was determined as 20 µM.
On to `O=c1c(O)c(-c2ccc(O)c(O)c2)oc2cc(O)ccc12` [Fisetin], for which the EC50 in series [1] (setting [7]) worked out at 50 µM.
The same measure, in the same setting: next, `COc1ccc([C@@H]2CC(=O)c3c(O)cc(O[C@@H]4O[C@H](CO[C@@H]5O[C@@H](C)[C@H](O)[C@@H](O)[C@H]5O)[C@@H](O)[C@H](O)[C@H]4O)cc3O2)cc1O` [Hesperidin]: 20 µM.
The same measure, in the same setting: with `OCc1c[nH]c2ccccc12` [Indole-3-Carbinol] the figure was 20 µM.
Turning to `O=c1cc(-c2ccc(O)c(O)c2)oc2cc(O)cc(O)c12` [Luteolin], the concentration for a half-maximal effect (EC50) in series [1] (setting [7]) worked out at 20 µM.
As to `O=c1c(O)c(-c2ccc(O)c(O)c2)oc2cc(O)cc(O)c12` [Quercetin], the EC50 in series [1] (setting [7]) stood at 25 µM.
In the case of `Oc1ccc(C=Cc2cc(O)cc(O)c2)cc1` [Resveratrol], the concentration for a half-maximal effect (EC50) in series [1] (setting [7]) was found to be 40 µM.
As for Fucoidan, in series [1] (setting [7]), the “EC50 (anti-adipogenic phytonutrients)” value was 100 µg/mL.
With “insulin: 100 nM insulin (Humulin R, Eli Lilly) [reference compound]”, in series [4], the “increase of pAkt (Ser473) phosphorylation” value is about 5.7 folds, the “increase of pAkt (Thr308) phosphorylation” value is reported as “approximately 3 folds” and the “increase of pAkt (Thr450) phosphorylation” value is on record as about 1.6 folds. For the same compound, the “Akt2 phosphorylation” value in series [3] was “two new peaks at pI 5.20 and pI 5.30”. Moreover, the “Akt3 cIEF electropherogram” value in series [5] was “two new peaks at pI 5.03 and pI 5.12”. Also, the “Akt1 cIEF electropherogram” value in series [6] is “nearly identical”.
